Data published in US20170114070A1, “INHIBITORS OF THE WNT SIGNALLING PATHWAYS” (Bayer Pharma Aktiengesellschaft, priority 2014, published 2017).

Legend:
[1] = test system: constitutive active Wnt pathway (HCT116 TOPFlash); test: Cellular reporter assay, HCT116 Super TopFlash (constitutive active Wnt pathway); type: cell-based; settings: Homo sapiens, HCT-116; HCT116 stably transfected with Super TopFlash vector; 36 hours incubation; luciferase expression
Method: In order to discover and characterize small molecules which inhibit the constitutive active colorectal cancer cell (CRC) Wnt pathway, a cellular reporter assay was employed. The corresponding assay cell was generated by transfection of the colorectal cancer cell line HCT116 (ATCC, #CCL-247) with the Super TopFlash vector (Morin, Science 275, 1997, 1787-1790; Molenaar et al., Cell 86 (3), 1996, 391-399). The HCT116 cell line is cultivated at 37° C. and 5% CO2 in DMEM/F-12 (Life Technologies, #11320-074), supplemented with 2 mM glutamine, 20 mM HEPES, 1.4 mM pyruvate, 0.15% Na-bicarbonate and 10% foetal bovine serum (GIBCO, #10270), this cancer cell line is pathophysiological relevant since it carries a deletion of position S45 in the β-catenin gene, leading to constitutive active Wnt signaling. Stable transfectants were generated by cotransfection with pcDNA3 and selection of stable transfected cells with 1 mg/ml G418.
(§1) In a parallel approach, HCT116 cells were cotransfected with the FOP control vector and pcDNA3. The FOP vector is identical to the TOP construct, but it contains instead of functional TCF elements a randomized, non-functional sequence. For this transfection a stable transfected cell line was generated as well.
(§2) In preparation of the assay, the two cell lines were plated 24 hours before at 10000 cells per well of a 384 micro titre plate (MTP) in 30 μL growth medium. Selective inhibitory activity for small molecules on the mutated Wnt pathway was determined after parallel incubation of both (TOP and FOP) HCT116 reporter cell lines with a compound dilution series from 50 μM to 15 nM in steps of 3.16-fold dilutions in CAFTY buffer (130 mM NaCl, 5 mM KCl, 20 mM HEPES, 1 mM MgCl2, 5 mM NaHCO3, pH 7.4) containing 2 mM Ca^2+ and 0.01% BSA. The compounds were thereby serially prediluted in 100% DMSO and thereafter in addition 50 fold into the CAFTY compound dilution buffer (described above). From this dilution 10 μL were added to the cells in 30 μL growth medium and incubated for 36 hours at 37° C. and 5% CO2. Thereafter luciferase assay buffer (1:1 mixture of luciferase substrate buffer (20 mM Tricine, 2.67 mM MgSO4, 0.1 mM EDTA, 4 mM DTT, 270 μM Coenzyme A, 470 μM Luciferin, 530 μM ATP, ph adjusted to pH 7.8 with a sufficient volume of 5M NaOH) and Triton buffer (30 mL Triton X-100, 115 mL glycerol, 308 mg Dithiothreitol, 4.45 g Na2HPO4.2H2O, 3.03 g TRIS HCl, ad 1 l H20, pH 7.8) was added as equal volume to the compound solution on the cells to determine luciferase expression as a measure of Wnt signaling activity in a luminometer.

[2] = test system: HCT116 FOPFlash (FOP control vector, non-functional TCF elements); test: Cellular control reporter assay, HCT116 FOP control vector; type: cell-based; settings: Homo sapiens, HCT-116; HCT116 stably transfected with FOP control vector; 36 hours incubation; luciferase expression; dilution series from 50 μM
Method: as §1, §2

CN1CCN(CC(=O)Nc2cc(C(=O)Nc3cnc(-c4cnccn4)cn3)ccc2OC(F)(F)F)CC1 [Example 54, N-(2,2′-bipyrazin-5-yl)-3-{[(4-methylpiperazin-1-yl)acetyl]amino}-4-(trifluoromethoxy)benzamide]
IC50 [1]: 1.35 µM | IC50 [2]: ≥ 50 µM

CN1CCN(CC(=O)Nc2cc(C(=O)Nc3cnc(-c4cnc(N)cn4)cn3)ccc2OC(F)(F)F)CC1 [Example 60, N-(5′-amino-2,2′-bipyrazin-5-yl)-3-{[(4-methylpiperazin-1-yl)acetyl]amino}-4-(trifluoromethoxy)benzamide]
IC50 [1]: 4.1 µM | IC50 [2]: ≥ 50 µM

CN1CCN(CC(=O)Nc2cc(C(=O)Nc3ncc(-c4ccccc4)cn3)ccc2OC(F)(F)F)CC1 [Example 19, 3-{[(4-methylpiperazin-1-yl)acetyl]amino}-N-(5-phenylpyrimidin-2-yl)-4-(trifluoromethoxy)benzamide]
IC50 [1]: 0.325 µM | IC50 [2]: ≥ 50 µM

Cc1ccccc1-c1cnc(NC(=O)c2ccc(OC(F)(F)F)c(NC(=O)CN3CCOCC3)c2)cn1 [Example 39, N-[5-(2-methylphenyl)pyrazin-2-yl]-3-[(morpholin-4-ylacetyl)amino]-4-(trifluoromethoxy)benzamide]
IC50 [1]: 0.225 µM | IC50 [2]: 24.9 µM

O=C(CN1CCOCC1)Nc1cc(C(=O)Nc2ncc(-c3ccccc3)cn2)ccc1OC1CC1 [Example 34, 4-(cyclopropyloxy)-3-[(morpholin-4-ylacetyl)amino]-N-(5-phenylpyrimidin-2-yl)benzamide]
IC50 [1]: 12.6 µM | IC50 [2]: ≥ 50 µM

O=C(CN1CCOCC1)Nc1cc(C(=O)Nc2cnc(-c3cccc(Cl)c3)cn2)ccc1OC(F)(F)F [Example 35, N-[5-(3-chlorophenyl)pyrazin-2-yl]-3-[(morpholin-4-ylacetyl)amino]-4-(trifluoromethoxy)benzamide]
IC50 [1]: 0.116 µM | IC50 [2]: ≥ 5.77 µM

CN1CCN(CC(=O)Nc2cc(C(=O)Nc3ccc(-c4cncnc4)nn3)ccc2OC(F)(F)F)CC1 [Example 2, 3-{[(4-methylpiperazin-1-yl)acetyl]amino}-N-[6-(pyrimidin-5-yl)pyridazin-3-yl]-4-(trifluoromethoxy)benzamide]
IC50 [1]: 0.162 µM | IC50 [2]: ≥ 50 µM

O=C(Nc1ccc([N+](=O)[O-])cc1Cl)c1cc(Cl)ccc1O [Ref., niclosamide, reference compound]
IC50 [2]: 3.1 µM

CN1CCN(CC(=O)Nc2cc(C(=O)Nc3cnc(-c4cnc(N)nc4)cn3)ccc2OC(F)(F)F)CC1 [Example 37, N-[5-(2-aminopyrimidin-5-yl)pyrazin-2-yl]-3-{[(4-methylpiperazin-1-yl)acetyl]amino}-4-(trifluoromethoxy)benzamide]
IC50 [1]: 0.223 µM | IC50 [2]: ≥ 50 µM

Cc1cccc(-c2cnc(NC(=O)c3ccc(OC(F)(F)F)c(NC(=O)CN4CCOCC4)c3)cn2)c1 [Example 47, N-[5-(3-methylphenyl)pyrazin-2-yl]-3-[(morpholin-4-ylacetyl)amino]-4-(trifluoromethoxy)benzamide]
IC50 [1]: 0.24 µM | IC50 [2]: 4.1 µM

O=C(CN1CCOCC1)Nc1cc(C(=O)Nc2cnc(-c3ccccc3F)cn2)ccc1OC(F)(F)F [Example 25, N-[5-(2-fluorophenyl)pyrazin-2-yl]-3-[(morpholin-4-ylacetyl)amino]-4-(trifluoromethoxy)benzamide]
IC50 [1]: 4.62 µM | IC50 [2]: 23.1 µM

O=C(CN1CCOCC1)Nc1cc(C(=O)Nc2cnc(-c3ccncc3)cn2)ccc1OC(F)(F)F [Example 51, 3-[(morpholin-4-ylacetyl)amino]-N-[5-(pyridin-4-yl)pyrazin-2-yl]-4-(trifluoromethoxy)benzamide]
IC50 [1]: 0.483 µM | IC50 [2]: ≥ 50 µM

CN1CCN(CC(=O)Nc2cc(C(=O)Nc3cnc(-c4ccc(N)nc4)cn3)ccc2OC(F)(F)F)CC1 [Example 24, N-[5-(6-aminopyridin-3-yl)pyrazin-2-yl]-3-{[(4-methylpiperazin-1-yl)acetyl]amino}-4-(trifluoromethoxy)benzamide]
IC50 [2]: ≥ 50 µM
